Results from patent US4143134A, “Halo-phosphonopeptides” (Hoffmann-La Roche Inc., priority 1976, dated 1979).
In brackets after ≈: the same amount, converted by molar mass.

Experiments:
Format in all cases: cell-based
[1] = system: Escherichia coli NCTC 10418 P.S.; assay: in vitro M.I.C. test against Escherichia coli NCTC 10418 P.S.; details: NCTC10418, read-out: M.I.C. (minimum inhibitory concentration)
Text: (§1) The following Table illustrates the minimum inhibitory concentration (M.I.C.) in μg/ml of a representative peptide derivative provided by this invention, namely (1R)-1-(L-3-fluoroalanylamino)-ethylphosphonic acid, in an in vitro test against various organisms.

[2] = system: Escherichia coli NCIB 8879 P.S.; assay: in vitro M.I.C. test against Escherichia coli NCIB 8879 P.S.; details: NCIB8879, read-out: M.I.C. (minimum inhibitory concentration)
Text: as §1

[3] = system: Klebsiella aerogenes Type 33 Ba; assay: in vitro M.I.C. test against Klebsiella aerogenes Type 33 Ba; details: TYPE33BA, read-out: M.I.C. (minimum inhibitory concentration)
Text: as §1

[4] = system: Klebsiella aerogenes O-G KAl; assay: in vitro M.I.C. test against Klebsiella aerogenes O-G KAl; details: read-out: M.I.C. (minimum inhibitory concentration)
Text: as §1

[5] = system: Escherichia coli C.1.5 P.R.; assay: in vitro M.I.C. test against Escherichia coli C.1.5 P.R.; details: read-out: M.I.C. (minimum inhibitory concentration)
Text: as §1

[6] = system: Haemophilus influenzae NCTC 4560; assay: in vitro M.I.C. test against Haemophilus influenzae NCTC 4560; details: NCTC4560, read-out: M.I.C. (minimum inhibitory concentration)
Text: as §1

`C[C@H](NC(=O)[C@@H](N)CF)P(=O)(O)O` [(1R)-1-(L-3-fluoroalanylamino)-ethylphosphonic acid] gave an MIC [1] of 0.25 µg/mL (≈ 1.17 µM), an MIC [2] of 0.5 µg/mL (≈ 2.33 µM) and an MIC [3] of 1 µg/mL (≈ 4.67 µM). It also gave an MIC [4] of 4 µg/mL (≈ 18.7 µM), an MIC [5] of 4 µg/mL (≈ 18.7 µM) and an MIC [6] of 8 µg/mL (≈ 37.4 µM).
